Our source for the DC50 values is patent publication US12091411B2, “IRAK degraders and uses thereof” (Kymera Therapeutics, Inc., priority 2022, dated 2024).

Each structure is given as a SMILES string. Read-outs that look alike come from different tables or passages of the source.

The target in this experiment is T1, IRAK4 (Homo sapiens, UniProt Q9NWZ3).
T1 construct: Degradation of IRAK4 in OCI-LY10 was quantitatively measured using Meso Scale Discovery technology; endogenous in cells; host or cells: OCI-LY10
T1 sequence (Q9NWZ3 1-460): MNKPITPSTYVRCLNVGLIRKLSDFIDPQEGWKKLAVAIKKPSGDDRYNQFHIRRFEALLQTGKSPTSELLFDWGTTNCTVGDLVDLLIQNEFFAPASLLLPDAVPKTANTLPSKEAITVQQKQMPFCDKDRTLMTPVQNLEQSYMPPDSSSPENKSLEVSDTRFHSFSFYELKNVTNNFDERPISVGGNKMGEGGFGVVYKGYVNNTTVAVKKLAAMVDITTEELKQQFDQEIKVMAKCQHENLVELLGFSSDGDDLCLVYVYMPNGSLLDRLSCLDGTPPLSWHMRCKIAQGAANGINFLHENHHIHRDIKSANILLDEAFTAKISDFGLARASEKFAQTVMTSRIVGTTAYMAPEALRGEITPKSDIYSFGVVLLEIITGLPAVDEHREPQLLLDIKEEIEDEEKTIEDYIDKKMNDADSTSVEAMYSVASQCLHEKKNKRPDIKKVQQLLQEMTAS
Description: IRAK4 MSD Degradation in OCI-LY10. It counts as cell-based. Particulars: OCI-LY10 cells, MSD. The method in brief:
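DC50, from a three-parameter logistic fit and reported as letter bins A (<0.01 μM), B, C, D (>0.2 μM or not tested), reflects IRAK4 loss measured by MSD electrochemiluminescence in OCI-LY10 lysates. Treatment: 8 doses, 1:3 steps, top 1 to 10 μM, 4 to 24 h, 37 °C.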

The mark [1] stands for this setting: 4 hrs incubation, read-out: IRAK4 degradation in OCI-LY10 at 4 hrs: DC50.
The mark [2] stands for this setting: 24 hrs incubation, read-out: IRAK4 degradation in OCI-LY10 at 24 hrs: DC50.

One may read the DC50 as the concentration at which degradation of the target reaches its halfway point. For `Cn1c(=O)n(C2CCC(=O)NC2=O)c2cccc(O[C@H]3C[C@H](N4CCN(C[C@H]5CC[C@H](n6cc(NC(=O)c7cnn8ccc(N9C[C@H]%10CC9CO%10)nc78)c(C(F)F)n6)CC5)CC4)C3)c21` (some centres unmarked) [I-577], the DC50 was over 200 nM under setting [1] and over 200 nM under setting [2].
Take `CO[C@]1(CN2CCN(C[C@H]3CC[C@H](n4cc(NC(=O)c5cnn6ccc(N7C[C@H]8CC7CO8)nc56)c(C(F)F)n4)CC3)CC2)C[C@H](c2cccc3c2n(C)c(=O)n3C2CCC(=O)NC2=O)C1` (some centres unmarked) [I-579]: the DC50 reads like this: under setting [1], over 200 nM; under setting [2], over 200 nM.
`Cn1c(=O)n(C2CCC(=O)NC2=O)c2cccc([C@H]3C[C@](O)(CN4CCN(C[C@H]5CC[C@H](n6cc(NC(=O)c7cnn8ccc(N9C[C@H]%10CC9CO%10)nc78)c(C(F)F)n6)CC5)CC4)C3)c21` (some centres unmarked) [I-580]: the DC50 runs as follows: under setting [1], over 200 nM; under setting [2], under 10 nM.
On to `Cn1c(=O)n(C2CCC(=O)NC2=O)c2cccc(N3CC(O[C@@H]4CCN(C[C@H]5CC[C@H](n6cc(NC(=O)c7cnn8ccc(N9C[C@H]%10C[C@@H]9CO%10)nc78)c(C(F)F)n6)CC5)C[C@@H]4F)C3)c21` (some centres unmarked) [I-581], for which the 50% degradation concentration (DC50) is over 200 nM under setting [1] and under 10 nM under setting [2].
Regarding `Cn1c(=O)n(C2CCC(=O)NC2=O)c2cccc(N3CC(O[C@@H]4CCN(C[C@H]5CC[C@H](n6cc(NC(=O)c7cnn8ccc(N9C[C@H]%10C[C@@H]9CO%10)nc78)c(C(F)F)n6)CC5)C[C@H]4F)C3)c21` (some centres unmarked) [I-582], the half-maximal degradation concentration (DC50) by setting is: under setting [1], over 200 nM; under setting [2], over 200 nM.
`Cn1c(=O)n(C2CCC(=O)NC2=O)c2cccc(N3CC(O[C@H]4CCN(C[C@H]5CC[C@H](n6cc(NC(=O)c7cnn8ccc(N9C[C@H]%10C[C@@H]9CO%10)nc78)c(C(F)F)n6)CC5)C[C@@H]4F)C3)c21` (some centres unmarked) [I-583]: the DC50 is over 200 nM under setting [1] and over 200 nM under setting [2].
Turning to `Cn1c(=O)n(C2CCC(=O)NC2=O)c2cccc(N3CC(O[C@H]4CCN(C[C@H]5CC[C@H](n6cc(NC(=O)c7cnn8ccc(N9C[C@H]%10C[C@@H]9CO%10)nc78)c(C(F)F)n6)CC5)C[C@H]4F)C3)c21` (some centres unmarked) [I-584], the DC50 was over 200 nM under setting [1] and over 200 nM under setting [2].
Consider `Cn1c(=O)n(C2CCC(=O)NC2=O)c2cccc(N3CC(CO[C@@H]4CCN(C[C@H]5CC[C@H](n6cc(NC(=O)c7cnn8ccc(N9C[C@H]%10CC9CO%10)nc78)c(C(F)F)n6)CC5)C[C@@H]4F)C3)c21` (some centres unmarked) [I-585], for which the DC50 reads like this: under setting [1], over 200 nM; under setting [2], under 10 nM.
As for `Cn1c(=O)n(C2CCC(=O)NC2=O)c2cccc(N3CC(CO[C@@H]4CCN(C[C@H]5CC[C@H](n6cc(NC(=O)c7cnn8ccc(N9C[C@H]%10CC9CO%10)nc78)c(C(F)F)n6)CC5)C[C@H]4F)C3)c21` (some centres unmarked) [I-586], the DC50 under setting [1] is over 200 nM and the 50% degradation concentration (DC50) under setting [2] is under 10 nM.
Regarding `Cn1c(=O)n(C2CCC(=O)NC2=O)c2cccc(N3CC(CO[C@H]4CCN(C[C@H]5CC[C@H](n6cc(NC(=O)c7cnn8ccc(N9C[C@H]%10CC9CO%10)nc78)c(C(F)F)n6)CC5)C[C@@H]4F)C3)c21` (some centres unmarked) [I-587], the 50% degradation concentration (DC50) under setting [1] was over 200 nM and the DC50 under setting [2] was under 10 nM.
In the same order, the values of `Cn1c(=O)n(C2CCC(=O)NC2=O)c2cccc(N3CC(CO[C@H]4CCN(C[C@H]5CC[C@H](n6cc(NC(=O)c7cnn8ccc(N9C[C@H]%10CC9CO%10)nc78)c(C(F)F)n6)CC5)C[C@H]4F)C3)c21` (some centres unmarked) [I-588] are over 200 nM and under 10 nM.
For `Cn1c(=O)n(C2CCC(=O)NC2=O)c2cccc(C#CCO[C@@H]3CCN(C[C@H]4CC[C@H](n5cc(NC(=O)c6cnn7ccc(N8CCS(=O)(=O)CC8)nc67)c(C(F)F)n5)CC4)C[C@@H]3F)c21` (some centres unmarked) [I-589], the DC50 is, setting by setting: under setting [1], over 200 nM; under setting [2], over 200 nM.
As to `Cn1c(=O)n(C2CCC(=O)NC2=O)c2cccc(C#CCO[C@@H]3CCN(C[C@H]4CC[C@H](n5cc(NC(=O)c6cnn7ccc(N8CCS(=O)(=O)CC8)nc67)c(C(F)F)n5)CC4)C[C@H]3F)c21` (some centres unmarked) [I-590], the DC50 reads like this: under setting [1], over 200 nM; under setting [2], over 200 nM.
Regarding `Cn1c(=O)n(C2CCC(=O)NC2=O)c2cccc(C#CCO[C@H]3CCN(C[C@H]4CC[C@H](n5cc(NC(=O)c6cnn7ccc(N8CCS(=O)(=O)CC8)nc67)c(C(F)F)n5)CC4)C[C@@H]3F)c21` (some centres unmarked) [I-591], the DC50 reads like this: under setting [1], over 200 nM; under setting [2], over 200 nM.
As for `Cn1c(=O)n(C2CCC(=O)NC2=O)c2cccc(C#CCO[C@H]3CCN(C[C@H]4CC[C@H](n5cc(NC(=O)c6cnn7ccc(N8CCS(=O)(=O)CC8)nc67)c(C(F)F)n5)CC4)C[C@H]3F)c21` (some centres unmarked) [I-592], the DC50 by setting is: under setting [1], over 200 nM; under setting [2], over 200 nM.
As to `Cn1c(=O)n(C2CCC(=O)NC2=O)c2cccc([C@H]3C[C@H](O[C@@H]4CCN(C[C@H]5CC[C@H](n6cc(NC(=O)c7cnn8ccc(N9C[C@H]%10C[C@@H]9CO%10)nc78)c(C(F)F)n6)CC5)C[C@@H]4F)C3)c21` (some centres unmarked) [I-593], the DC50 under setting [1] is over 200 nM and the DC50 under setting [2] was over 200 nM.
In the case of `Cn1c(=O)n(C2CCC(=O)NC2=O)c2cccc([C@H]3C[C@H](O[C@@H]4CCN(C[C@H]5CC[C@H](n6cc(NC(=O)c7cnn8ccc(N9C[C@H]%10C[C@@H]9CO%10)nc78)c(C(F)F)n6)CC5)C[C@H]4F)C3)c21` (some centres unmarked) [I-594], the DC50 under setting [1] is over 200 nM and the DC50 under setting [2] was over 200 nM.
With `Cn1c(=O)n(C2CCC(=O)NC2=O)c2cccc([C@H]3C[C@H](O[C@H]4CCN(C[C@H]5CC[C@H](n6cc(NC(=O)c7cnn8ccc(N9C[C@H]%10C[C@@H]9CO%10)nc78)c(C(F)F)n6)CC5)C[C@@H]4F)C3)c21` (some centres unmarked) [I-595], the DC50 runs as follows: under setting [1], over 200 nM; under setting [2], over 200 nM.
Consider `Cn1c(=O)n(C2CCC(=O)NC2=O)c2cccc([C@H]3C[C@H](O[C@H]4CCN(C[C@H]5CC[C@H](n6cc(NC(=O)c7cnn8ccc(N9C[C@H]%10C[C@@H]9CO%10)nc78)c(C(F)F)n6)CC5)C[C@H]4F)C3)c21` (some centres unmarked) [I-596], for which the DC50 reads like this: under setting [1], over 200 nM; under setting [2], over 200 nM.
As for `Cn1c(=O)n(C2CCC(=O)NC2=O)c2cccc([C@H]3C[C@@H](COC4CN(C[C@H]5CC[C@H](n6cc(NC(=O)c7cnn8ccc(N9C[C@H]%10C[C@@H]9CO%10)nc78)c(C(F)F)n6)CC5)C4)C3)c21` (some centres unmarked) [I-597], the DC50 by setting is: under setting [1], over 200 nM; under setting [2], under 10 nM.
For `Cn1c(=O)n(C2CCC(=O)NC2=O)c2cccc([C@H]3C[C@H](COC4CN(C[C@H]5CC[C@H](n6cc(NC(=O)c7cnn8ccc(N9C[C@H]%10C[C@@H]9CO%10)nc78)c(C(F)F)n6)CC5)C4)C3)c21` (some centres unmarked) [I-598] the same measures were over 200 nM and under 10 nM.
As for `Cn1c(=O)n(C2CCC(=O)NC2=O)c2cccc(N3CC(COC4CN(C[C@H]5CC[C@H](n6cc(NC(=O)c7cnn8ccc(N9C[C@H]%10C[C@@H]9CO%10)nc78)c(C(F)F)n6)CC5)C4)C3)c21` (some centres unmarked) [I-599], the DC50 is, setting by setting: under setting [1], over 200 nM; under setting [2], under 10 nM.
As for `Cn1c(=O)n(C2CCC(=O)NC2=O)c2cccc(C#CCOC3CN(C[C@H]4CC[C@H](n5cc(NC(=O)c6cnn7ccc(N8C[C@H]9C[C@@H]8CO9)nc67)c(C(F)F)n5)CC4)C3)c21` (some centres unmarked) [I-600], the 50% degradation concentration (DC50) was over 200 nM under setting [1] and over 200 nM under setting [2].
As for `Cn1c(=O)n(C2CCC(=O)NC2=O)c2cccc(N3CC(OC4CCN(C[C@H]5CC[C@H](n6cc(NC(=O)c7cnn8ccc(N9C[C@H]%10C[C@@H]9CO%10)nc78)c(C(F)F)n6)CC5)CC4)C3)c21` (some centres unmarked) [I-601], the half-maximal degradation concentration (DC50) is over 200 nM under setting [1] and over 200 nM under setting [2].
In the case of `CN(C[C@H]1CC[C@H](n2cc(NC(=O)c3cnn4ccc(N5C[C@H]6C[C@@H]5CO6)nc34)c(C(F)F)n2)CC1)C1CN(c2cccc3c2n(C)c(=O)n3C2CCC(=O)NC2=O)C1` (some centres unmarked) [I-602], the 50% degradation concentration (DC50) runs as follows: under setting [1], over 200 nM; under setting [2], over 200 nM.
Take `C[C@H]1CN(c2ccn3ncc(C(=O)Nc4cn([C@H]5CC[C@H](CN(C)C6CN(c7cccc8c7n(C)c(=O)n8C7CCC(=O)NC7=O)C6)CC5)nc4C(F)F)c3n2)CCO1` (some centres unmarked) [I-603]: the 50% degradation concentration (DC50) by setting is: under setting [1], over 200 nM; under setting [2], over 200 nM.
As for `Cn1c(=O)n(C2CCC(=O)NC2=O)c2cccc(N3CC(F)(CN4CCN(C[C@H]5CC[C@H](n6cc(NC(=O)c7cnn8ccc(N9C[C@H]%10CC9CO%10)nc78)c(C(F)F)n6)CC5)CC4)C3)c21` (some centres unmarked) [I-604], the DC50 runs as follows: under setting [1], over 200 nM; under setting [2], over 200 nM.
With `Cn1c(=O)n(C2CCC(=O)NC2=O)c2cccc(N3CC(O)(CN4CCN(C[C@H]5CC[C@H](n6cc(NC(=O)c7cnn8ccc(N9C[C@H]%10CC9CO%10)nc78)c(C(F)F)n6)CC5)CC4)C3)c21` (some centres unmarked) [I-605], the DC50 by setting is: under setting [1], over 200 nM; under setting [2], under 10 nM.
Consider `COC1(CN2CCN(C[C@H]3CC[C@H](n4cc(NC(=O)c5cnn6ccc(N7C[C@H]8CC7CO8)nc56)c(C(F)F)n4)CC3)CC2)CN(c2cccc3c2n(C)c(=O)n3C2CCC(=O)NC2=O)C1` (some centres unmarked) [I-606], for which the DC50 is, setting by setting: under setting [1], over 200 nM; under setting [2], under 10 nM.
Consider `Cn1c(=O)n(C2CCC(=O)NC2=O)c2cccc(OC3CN(C[C@H]4CC[C@H](n5cc6cc(NC(=O)c7cccc(C(F)(F)F)n7)ccc6n5)CC4)C3)c21` (some centres unmarked) [I-607], for which the 50% degradation concentration (DC50) is over 200 nM under setting [1] and 10 to 100 nM under setting [2].
On to `Cn1c(=O)n(C2CCC(=O)NC2=O)c2cccc(OC3CN(C[C@H]4CC[C@H](n5cc6cc(NC(=O)c7cccc(C(F)(F)F)n7)ncc6n5)CC4)C3)c21` (some centres unmarked) [I-608], for which the DC50 was over 200 nM under setting [1] and over 200 nM under setting [2].
